From patent US10426850B2, “Collagen mimetic peptides for targeting collagen strands for in vitro and in vivo imaging and therapeutic use” (The Johns Hopkins University, priority 2011, dated 2019)
Non-standard residues stand in square brackets, D forms with d. No end group written: not given here. *: point of attachment. IRDye800CW = CC1(C)C(/C=C/C2=C(Oc3ccc(S(=O)(=O)O)cc3)C(=C/C=C3/N(CCCCS(=O)(=O)O)c4ccc(S(=O)(=O)O)cc4C3(C)C)/CCC2)=[N+](CCCCCC(=O)*)c2ccc(S(=O)(=O)[O-])cc21; Hyp = O=C(O)[C@@H]1C[C@@H](O)CN1; CF = 5(6)-carboxyfluorescein; Ahx = NCCCCCC(=O)O

Columns and labels:
[1] = Circular dichroism spectra and thermal melting of CMPs; format: physicochemical; settings: for Tm (CD melting curve, triple helix): after UV exposure (photo-decaged), heating rate 60° C./hr, Tm about 10° C. higher than equilibrium Tm
Method: Circular dichroism spectroscopy. CD spectra were collected on JASCO 715 spectrophotometer equipped with a JASCO PTC-348 WI temperature controller and quartz cells (0.1 mm path length). CMP solutions (320 μL, 150 μM in 1×PBS) were stored at 4° C. for at least 24 hours before measurement. For photo-decaging, samples were exposed to 365 nm UV light for at least 30 minutes before the 4° C. incubation. The thermal melting studies were performed by measuring the ellipticity at 225 nm with 60° C./hr heating rate. Raw CD signal was normalized to mean residue ellipticity based on the peptide's length and concentration (Biopolymers 95:94-104 (2011)). Melting temperatures (Tm) were determined by fitting the mean residue ellipticity to a two-state model (Org Lett 8:4735-4738 (2006)). To measure the refolding kinetics, CMP solution was thermally denatured at 75° C. for 10 minutes in a cuvette and rapidly quenched to 25° C. in an ice-water bath, after which the CD signal at 225 nm was observed over time at 25° C. The CD spectra of intact and MMP-1 cleaved type I collagen (FIG. 12) was measured in 90 μg/mL protein solutions in 20 mM acetic acid buffer at 22° C. The 37° C. thermal stability profile (FIG. 2E, inset) was generated by monitoring the ellipticity at 222 nm immediately after transferring the cuvette to a temperature controlled cuvette holder pre-set to 37° C. The Tm values reported in this study are approximately 10° C. higher than the equilibrium Tm due to high heating rate (60° C./hr) (Biopolymers 73:682-688 (2004)).
Synthesis of fluorescently labeled collagen mimetic peptides. Non-caged CMPs were synthesized using Fmoc-mediated solid-phase chemistry by manual or automated synthesis as described previously.2,4 The caged NB(GPO)9 (SEQ ID NO: 12) was prepared by introducing Fmoc(N-o-nitrobenzyl)Gly-OH (synthesized according to Tatsu et al. 2,5) in the middle of the standard solid-phase peptide synthesis. The Hyp residue following the NBGly was conjugated using 9 molar equiv of Fmoc-Hyp(tBu)-OH, 8.8 molar equiv of PyBroP, and 20 molar equiv of DIPEA for over 24 hr to overcome the low reactivity caused by the steric hindrance of the NB cage group. The remaining sequence including the GGG spacer was completed by HBTU chemistry, followed by on-resin labeling with 6 molar equivalent of CF or TAMRA activated by 6 molar equivalent of PyAOP for over 24 hr. The full length fluorescent CMPs were cleaved from resin by treating the resin with TFA/TIS/H2O (95:2.5:2.5) for 3 hr and the cleaved peptide was purified by reverse phase HPLC on a Vydac C18 column using a linear gradient mixture of water (0.1% TFA) and acetonitrile (0.1% TFA) (5-45% acetonitrile gradient in 40 min). The purified peptides were analyzed by MALDI-TOF MS (FIG. 27): m/z calculated 2975.1 [M+Na+] for CF(GPO)9 (SEQ ID NO: 10), found 2975.0 [M+Na+]; m/z calculated 2975.1 [M+Na+] for ^SG9P9O9 (SEQ ID NO: 5), found 2973.5 [M+Na+]; m/z calculated 3110.2 [M+Na+] for CF^NB(GPO)9 (SEQ ID NO: 4), found 3109.4 [M+Na+]; m/z calculated 2975.1 [M+Na+] for CF(GPO)9 (SEQ ID NO: 10) [CF^NB(GPO)9 (SEQ ID NO: 4) after UV decaging], found 2974.1 [M+Na+]; m/z calculated 3142.3 [M+H+] for TAMRA-NB(GPO)9 (SEQ ID NO: 12), found 3141.4 [M+H+]; m/z calculated 3007.2 [M+H+] for TAMRA-(GPO)9 (SEQ ID NO: 15), [TAMRA-NB(GPO)9 (SEQ ID NO: 12) after decaging], found 3006.3 [M+H+]. CD spectra and CD melting curves of the labeled CMPs were acquired in PBS solutions using a JASCO 715 CD spectrophotometer. The solutions were incubated for at least 24 hours at 4° C. prior to CD experiment to ensure folding (FIG. 28).

[2] = target: T1, type I collagen films (fibrillar collagen) (Rattus norvegicus, UniProt P02454+P02466); assay: Photo-triggered CMP binding assay on collagen films; settings: 4° C., overnight incubation
T1 construct: Collagen solution (200 μL, 3.71 mg/mL, type I rat tail, BD Science); purchased BD Science; host or cells: rat tail
T1 sequence (P02454 152-1207 limits assumed): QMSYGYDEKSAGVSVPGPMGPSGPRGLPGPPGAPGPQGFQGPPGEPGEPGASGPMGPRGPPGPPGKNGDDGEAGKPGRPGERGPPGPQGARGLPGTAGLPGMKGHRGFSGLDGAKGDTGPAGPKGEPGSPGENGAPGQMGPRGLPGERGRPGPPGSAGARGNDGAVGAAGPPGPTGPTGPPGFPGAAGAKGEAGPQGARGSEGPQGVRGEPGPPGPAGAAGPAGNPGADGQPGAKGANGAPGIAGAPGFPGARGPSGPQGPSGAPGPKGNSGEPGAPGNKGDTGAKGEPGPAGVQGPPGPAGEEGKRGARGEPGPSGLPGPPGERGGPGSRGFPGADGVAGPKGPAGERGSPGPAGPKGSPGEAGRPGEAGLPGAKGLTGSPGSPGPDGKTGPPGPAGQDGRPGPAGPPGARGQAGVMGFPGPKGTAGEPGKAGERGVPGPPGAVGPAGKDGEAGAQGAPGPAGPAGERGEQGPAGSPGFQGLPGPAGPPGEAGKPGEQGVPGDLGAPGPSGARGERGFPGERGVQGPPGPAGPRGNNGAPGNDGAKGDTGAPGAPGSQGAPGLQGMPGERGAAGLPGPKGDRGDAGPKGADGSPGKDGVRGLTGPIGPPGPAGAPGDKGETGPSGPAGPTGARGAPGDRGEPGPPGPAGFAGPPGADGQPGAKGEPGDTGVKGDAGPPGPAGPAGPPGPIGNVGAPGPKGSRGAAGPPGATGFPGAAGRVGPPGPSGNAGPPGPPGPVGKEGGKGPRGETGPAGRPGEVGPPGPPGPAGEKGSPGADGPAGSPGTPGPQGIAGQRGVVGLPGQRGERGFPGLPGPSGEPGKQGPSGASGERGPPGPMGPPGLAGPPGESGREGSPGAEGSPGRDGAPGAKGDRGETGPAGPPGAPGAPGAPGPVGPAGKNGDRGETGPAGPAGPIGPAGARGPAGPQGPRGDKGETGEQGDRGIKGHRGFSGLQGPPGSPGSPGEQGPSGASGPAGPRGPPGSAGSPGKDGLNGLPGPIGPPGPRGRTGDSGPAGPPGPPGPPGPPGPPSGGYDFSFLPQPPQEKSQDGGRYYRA
T1 sequence (P02466 86-1125 limits assumed): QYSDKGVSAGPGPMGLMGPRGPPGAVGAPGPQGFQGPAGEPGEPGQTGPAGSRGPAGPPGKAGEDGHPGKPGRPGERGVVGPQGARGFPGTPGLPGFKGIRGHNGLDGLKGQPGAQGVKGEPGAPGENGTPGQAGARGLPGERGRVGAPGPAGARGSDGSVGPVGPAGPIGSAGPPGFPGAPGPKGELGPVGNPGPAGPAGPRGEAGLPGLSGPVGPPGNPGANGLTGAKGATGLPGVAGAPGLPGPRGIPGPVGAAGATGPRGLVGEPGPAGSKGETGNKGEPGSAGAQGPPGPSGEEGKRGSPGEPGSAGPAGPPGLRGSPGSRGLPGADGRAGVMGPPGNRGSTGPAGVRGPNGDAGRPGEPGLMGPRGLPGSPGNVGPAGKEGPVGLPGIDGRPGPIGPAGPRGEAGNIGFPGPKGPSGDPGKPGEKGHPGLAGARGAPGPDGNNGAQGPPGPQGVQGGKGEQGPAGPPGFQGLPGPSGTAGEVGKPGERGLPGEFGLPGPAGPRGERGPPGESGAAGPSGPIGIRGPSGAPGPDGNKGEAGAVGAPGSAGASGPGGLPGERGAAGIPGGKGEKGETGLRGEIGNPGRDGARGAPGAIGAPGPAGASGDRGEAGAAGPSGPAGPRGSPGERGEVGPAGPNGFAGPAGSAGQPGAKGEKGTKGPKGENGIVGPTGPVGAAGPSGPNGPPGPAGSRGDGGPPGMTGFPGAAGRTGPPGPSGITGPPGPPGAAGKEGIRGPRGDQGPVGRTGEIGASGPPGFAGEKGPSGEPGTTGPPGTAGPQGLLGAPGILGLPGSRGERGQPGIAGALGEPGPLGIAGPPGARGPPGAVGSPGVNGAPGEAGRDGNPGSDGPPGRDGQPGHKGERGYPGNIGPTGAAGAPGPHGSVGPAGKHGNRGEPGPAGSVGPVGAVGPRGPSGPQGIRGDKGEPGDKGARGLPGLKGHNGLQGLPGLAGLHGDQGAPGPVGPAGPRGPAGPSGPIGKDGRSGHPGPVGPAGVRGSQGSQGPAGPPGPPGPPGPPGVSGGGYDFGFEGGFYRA
Method: (§1) Collagen/gelatin binding assays. Collagen solution (200 μL, 3.71 mg/mL, type I rat tail, BD Science) in 0.02 N acetic acid was added to each well of a 96-well black/clear-bottom plate (Costar) and air-dried. To make gelatin films, the same collagen solution was denatured at 70° C. for 15 minutes before applying to the well. The dried films were neutralized and washed with 1×PBS buffer (pH 7.4) and deionized water. PBS solution of carboxyfluorescein-labeled caged CMP (40 μL, 50 μM, unless indicated otherwise) pre-equilibrated at 4° C. was added onto each reconstituted collagen or gelatin film and exposed to 365 nm UV light (10 mW/cm^2, from mercury arc lamp) for 11 minutes on ice. Wells for the UV-negative control groups were covered with aluminum foil to block UV exposure. After incubation at 4° C. for over 3 hours (unless indicated otherwise), the unbound materials were removed by rinsing with PBS buffer and deionized water. The films were allowed to dry in dark, after which the fluorescence (ex: 489 nm, em: 533 nm) was measured with a SpectraMax Gemini XPS microplate reader (Molecular Devices). Each binding experiment was done in triplicate.

[3] = target: T2, thermally-denatured collagen (gelatin) films (Rattus norvegicus, UniProt P02454+P02466); assay: Photo-triggered CMP binding assay on gelatin films; settings: after photo-cleavage, type I gelatin films
T2 construct: To make gelatin films, the same collagen solution was denatured at 70° C. for 15 minutes; purchased BD Science; host or cells: rat tail
T2 sequence (P02454 152-1207 limits assumed): as the sequence (P02454 152-1207 limits assumed) above
T2 sequence (P02466 86-1125 limits assumed): as the sequence (P02466 86-1125 limits assumed) above
Method: as §1

[4] = system: PC-3 prostate tumor xenografts (PC3-PIP, PC3-flu); assay: In vivo tumor targeting, NIRF imaging, prostate xenografts; set-up: species or system mouse; settings: 3.7 nmol, tail vein, UV-activated, imaging over four days (to 96 hours PI)
[5] = system: Panc02 and Panc198 tumors; assay: In vivo tumor targeting, NIRF imaging, pancreatic xenografts; set-up: species or system mouse; settings: approximately 4 nmol, tail vein; 96 hr post injection
Method: Murine Panc02 and human Panc198 cells were acquired from the ATCC (Rockville, Md.) and cultured in RPMI1640 supplemented with 10% FBS, 10 μg/mL of streptomycin and 10 I.U./mL of penicillin at 37° C. in 5% CO2 and humidified air until 80-95% confluence. The cells were then trypsinized and formulated at either 2×10^6 cells/100 μL (Panc198) or 1×10^6 cells/100 μL (Panc02) followed by subcutaneous inoculation into 12-week-old female athymic nu/nu mice (NCI). Panc198 and Panc02 cells were inoculated subcutaneously behind the left and right shoulder, respectively. When the Panc02 xenograft reached 4-6 mm in diameter (˜2 weeks after inoculation), each mouse was intravenously administered with solution containing 4 nmol of photo-activated IR-Ahx-(GPO)9 (SEQ ID NO: 9) or IR-Ahx-^SG9P9O9 (SEQ ID NO: 8) and 1 nmol of cysteine, followed by MMPsense injection and NIRF imaging as described.

[6] = system: collagen remodeling in bones and cartilages; settings: 4 nmol intravenous, photo-decaged, four days after injection
[7] = target: T3, MMP-1 cleaved type I collagen (3/4 and 1/4 fragments) (rat, UniProt P02454 152-1207; P02466 86-1125); assay: fluorescent staining of SDS-PAGE gel
T3 construct: Tested kept at 22 C, after 1 min at 37 C (spontaneously denatured), and as denatured bands in SDS-PAGE; also called MMP-1 digested collagens; MMP-Col
T3 sequence (P02454 152-1207, chain 1 of 2): as the sequence (P02454 152-1207 limits assumed) above
T3 sequence (P02466 86-1125, chain 2 of 2): as the sequence (P02466 86-1125 limits assumed) above

[8] = target: T4, mouse type IV collagen (denatured, reduced, in SDS-PAGE) (mouse, UniProt P02463 28-1669; P08122 26-1707); assay: fluorescent staining of SDS-PAGE gel
T4 construct: also called collagen type IV

In the case of CF-GGG-(GPP)4^NBGPP(GPP)4 [CF^NB(GPP)9], the “Tm (CD melting curve, triple helix)” value [1] is reported as 51 °C.

With “CF-GGG-(G^DP^DP)4^NBG^DP^DP(G^DP^DP)4 [CF^NB(G^DP^DP)9]” the “Tm (CD melting curve, triple helix)” value [1] was 51 °C, the “UV triggered collagen binding as fraction of that of CF^NB(GPP)9” value [2] was “about one fourth” and the “level of gelatin binding relative to CF^NB(GPP)9” value [3] was “an order of magnitude lower”.

In the case of “IR-Ahx-^SG9P9O9: IRDye-800CW labeled sequence-scrambled control peptide with Ahx spacer, SEQ ID NO: 8 ({IRDye800CW-Ahx}-PGPGPGPPPPGPGPPPGPPPGGPPPPG; numbers in words are those of the source; also: 9 O residues (G9P9O9), places not given here)”, the “triple helical folding capacity (CD melting)” value ([1]; sequence-scrambled peptide) is reported as “no triple helix forming capacity”, the “tumor accumulation (in vivo NIRF imaging)” value [4] is reported as “minimal accumulation at the tumor sites” and the “tumor accumulation (in vivo NIRF imaging)” value ([4]; listed as IR-Ahx-SG9P9O9) is reported as “cleared out”. For the same molecule, the “tumor accumulation (NIRF imaging)” value [5] was “no peptide accumulation”.

With “IR′-Ahx-^SG9P9O9: IRDye 680RD labeled sequence-scrambled peptide, SEQ ID NO: 8 ({IRDye 680RD-Ahx}-PGPGPGPPPPGPGPPPGPPPGGPPPPG; not fully specified; numbers in words are those of the source; also: 9 O residues (G9P9O9), places not given here)” the “skeletal uptake (whole body NIRF)” value [6] was “signal only from the digestive system”.

B1: CF^SG9P9O9, sequence-scrambled control peptide, CF-GGG-PGOGPGPOPOGOGOPPGOOPGGOOPPG (peptide)
peptide: {CF}-GGGPG[Hyp]GPGP[Hyp]P[Hyp]G[Hyp]G[Hyp]PPG[Hyp][Hyp]PGG[Hyp][Hyp]PPG
notes: Cannot fold into a triple helix; also called ^9G9P9O9; ^CG9P9O9
B1: no binding (tested: 6 µM) [7]; no binding (tested: 6 µM) [8].
